According to patent publication US20260193264A1, “BENZOYPARAZINE PYRAZINES AND THEIR USES” (FOGHORN THERAPEUTICS INC., priority 2022, published 2026):

Experiments:
[1] = biological target: T1, HiBit-BRG1 fusion protein in stable HeLa cell line expressing HiBit-BRG1 and LgBit (Homo sapiens, UniProt P51532); assay: HiBiT-BRG1 cell-based degradation assay (Nano-Glo HiBiT, 24 h); conditions: HeLa HiBit-BRG1/LgBit cells; for DC50: read-out: BRMG1 HiBit Degradation IC50; for Dmax: top dose 30 μM, read-out: BRG1 HiBit Degradation Maximum (%)
T1 construct: expressed in transfected cells
Summary of the method: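 Stable HeLa line co-expressing HiBiT-BRG1 and LgBiT, compound-treated 24 h; luminescence read after Nano-Glo HiBiT lytic reagent. % degradation normalised between DMSO (high control) and 2 μM reference BRM/BRG1 degrader (low control).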

[2] = biological target: T2, HiBiT-BRM fusion protein in stable HeLa cell line (Homo sapiens, UniProt P51531); assay: HiBiT-BRM cell-based degradation assay (Nano-Glo HiBiT Lytic Detection, 24 h); parameters: DC50: scale not given here; conditions: HeLa HiBiT-BRM cells; for DC50: read-out: BRM HiBit Degradation IC50; for BRM HiBit Degradation Maximum (%): top dose 30 μM
T2 construct: expressed in transfected cells
Summary of the method: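 Luminescence from HiBiT/LgBiT complementation after lysis reports remaining HiBiT-BRM in stable HeLa cells exposed to compound for 24 h. Dosing used 3-fold serial dilutions, 10 points, 30 μM top final concentration. DMSO and a 2 μM BRM/BRG1 degrader standard defined 0% and 100% degradation.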

T1 sequence (P51532 whole entry, the tested form may be a part): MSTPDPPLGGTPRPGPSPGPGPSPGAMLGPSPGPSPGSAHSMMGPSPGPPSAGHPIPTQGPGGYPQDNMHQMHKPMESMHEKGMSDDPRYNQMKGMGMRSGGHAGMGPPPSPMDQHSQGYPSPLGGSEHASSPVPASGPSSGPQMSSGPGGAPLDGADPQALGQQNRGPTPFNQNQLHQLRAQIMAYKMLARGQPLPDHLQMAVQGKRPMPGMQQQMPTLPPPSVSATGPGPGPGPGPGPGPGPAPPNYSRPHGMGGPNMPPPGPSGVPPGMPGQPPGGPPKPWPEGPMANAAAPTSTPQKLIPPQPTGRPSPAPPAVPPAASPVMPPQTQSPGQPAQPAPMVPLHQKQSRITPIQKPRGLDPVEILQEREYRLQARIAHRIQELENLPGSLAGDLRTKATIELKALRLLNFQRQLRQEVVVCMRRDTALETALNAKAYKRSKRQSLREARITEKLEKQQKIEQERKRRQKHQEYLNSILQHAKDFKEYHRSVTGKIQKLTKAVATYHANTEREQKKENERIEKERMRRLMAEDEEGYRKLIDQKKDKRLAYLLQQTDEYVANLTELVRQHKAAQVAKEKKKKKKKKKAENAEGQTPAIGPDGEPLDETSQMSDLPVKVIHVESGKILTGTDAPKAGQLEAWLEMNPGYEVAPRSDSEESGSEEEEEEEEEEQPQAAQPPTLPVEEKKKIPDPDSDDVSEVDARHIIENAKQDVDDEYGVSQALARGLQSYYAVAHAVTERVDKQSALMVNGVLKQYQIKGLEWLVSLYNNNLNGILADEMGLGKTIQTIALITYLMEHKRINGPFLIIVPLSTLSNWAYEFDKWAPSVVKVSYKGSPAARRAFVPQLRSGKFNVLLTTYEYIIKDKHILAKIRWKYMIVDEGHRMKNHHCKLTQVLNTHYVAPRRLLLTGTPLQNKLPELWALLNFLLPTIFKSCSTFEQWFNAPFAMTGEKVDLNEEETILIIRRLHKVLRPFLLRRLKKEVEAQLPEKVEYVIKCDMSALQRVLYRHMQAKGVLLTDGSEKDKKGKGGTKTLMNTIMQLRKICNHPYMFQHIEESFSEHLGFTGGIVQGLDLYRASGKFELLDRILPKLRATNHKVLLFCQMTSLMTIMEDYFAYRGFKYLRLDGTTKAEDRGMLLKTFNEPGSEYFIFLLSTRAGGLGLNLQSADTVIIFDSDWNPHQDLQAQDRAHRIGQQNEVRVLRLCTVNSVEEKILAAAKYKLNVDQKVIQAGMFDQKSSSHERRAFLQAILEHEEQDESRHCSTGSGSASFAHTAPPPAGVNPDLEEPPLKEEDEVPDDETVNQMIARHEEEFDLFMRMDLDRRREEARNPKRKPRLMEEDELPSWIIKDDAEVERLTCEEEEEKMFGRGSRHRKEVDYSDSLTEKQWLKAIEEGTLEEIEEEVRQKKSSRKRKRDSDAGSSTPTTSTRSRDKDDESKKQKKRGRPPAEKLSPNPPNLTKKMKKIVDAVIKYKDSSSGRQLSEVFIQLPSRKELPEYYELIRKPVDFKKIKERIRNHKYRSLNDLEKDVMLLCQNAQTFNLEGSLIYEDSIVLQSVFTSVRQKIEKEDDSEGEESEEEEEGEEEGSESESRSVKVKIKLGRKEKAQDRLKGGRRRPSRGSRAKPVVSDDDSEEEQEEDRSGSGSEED
T2 sequence (P51531 whole entry, the tested form may be a part): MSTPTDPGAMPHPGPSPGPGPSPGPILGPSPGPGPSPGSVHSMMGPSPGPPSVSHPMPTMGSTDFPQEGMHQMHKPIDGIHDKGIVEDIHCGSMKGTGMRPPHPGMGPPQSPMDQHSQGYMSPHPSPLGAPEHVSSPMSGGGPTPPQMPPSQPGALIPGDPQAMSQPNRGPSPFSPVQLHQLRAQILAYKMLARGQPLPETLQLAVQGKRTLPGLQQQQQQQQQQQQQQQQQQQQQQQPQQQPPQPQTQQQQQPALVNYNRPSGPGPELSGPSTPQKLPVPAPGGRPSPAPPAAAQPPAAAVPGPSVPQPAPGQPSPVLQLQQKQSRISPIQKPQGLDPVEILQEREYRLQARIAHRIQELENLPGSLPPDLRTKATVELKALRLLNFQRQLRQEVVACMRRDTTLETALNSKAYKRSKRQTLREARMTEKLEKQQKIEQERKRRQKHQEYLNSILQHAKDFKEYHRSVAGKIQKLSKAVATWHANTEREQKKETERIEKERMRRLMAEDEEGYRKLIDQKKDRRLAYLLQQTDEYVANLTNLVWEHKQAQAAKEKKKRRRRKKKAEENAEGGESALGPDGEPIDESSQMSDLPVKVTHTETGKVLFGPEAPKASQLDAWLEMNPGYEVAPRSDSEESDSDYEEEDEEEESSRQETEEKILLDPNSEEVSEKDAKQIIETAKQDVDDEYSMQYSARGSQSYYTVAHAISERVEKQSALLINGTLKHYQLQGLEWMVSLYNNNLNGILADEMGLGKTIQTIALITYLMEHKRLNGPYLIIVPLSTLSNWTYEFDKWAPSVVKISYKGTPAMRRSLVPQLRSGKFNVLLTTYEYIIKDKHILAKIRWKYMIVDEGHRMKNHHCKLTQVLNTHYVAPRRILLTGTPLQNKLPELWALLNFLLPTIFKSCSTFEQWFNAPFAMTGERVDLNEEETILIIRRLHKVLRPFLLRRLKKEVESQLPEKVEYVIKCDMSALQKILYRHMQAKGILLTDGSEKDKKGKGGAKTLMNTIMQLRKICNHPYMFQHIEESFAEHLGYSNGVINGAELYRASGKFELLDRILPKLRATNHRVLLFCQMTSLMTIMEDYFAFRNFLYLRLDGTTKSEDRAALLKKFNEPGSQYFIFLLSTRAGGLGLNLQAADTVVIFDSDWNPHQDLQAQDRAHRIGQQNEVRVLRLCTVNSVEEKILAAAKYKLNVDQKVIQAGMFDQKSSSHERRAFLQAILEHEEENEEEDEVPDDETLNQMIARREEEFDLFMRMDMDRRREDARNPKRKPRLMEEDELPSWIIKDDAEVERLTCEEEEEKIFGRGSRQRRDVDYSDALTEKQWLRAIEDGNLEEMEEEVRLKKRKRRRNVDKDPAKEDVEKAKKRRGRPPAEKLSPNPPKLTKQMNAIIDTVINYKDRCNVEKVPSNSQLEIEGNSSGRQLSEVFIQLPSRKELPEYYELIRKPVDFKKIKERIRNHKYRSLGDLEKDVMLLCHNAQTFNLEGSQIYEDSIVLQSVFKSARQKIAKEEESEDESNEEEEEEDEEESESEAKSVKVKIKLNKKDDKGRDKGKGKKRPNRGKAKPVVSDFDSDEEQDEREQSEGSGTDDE

Dmax [1] [%] | DC50 [2] [nM] | SMILES | DC50 [1] [nM] | BRM HiBit Degradation Maximum (%) [2]
> 75 | < 10 | Cc1ncsc1-c1ccc([C@H](C)NC(=O)[C@@H]2C[C@@H](O)CN2C(=O)C(C(C)C)n2cc(N3CCN(CN4CCN(c5ccc6nnc(-c7ccccc7O)cc6c5)CC4)CC3)nn2)cc1 (some centres unmarked) [Compound 282] | < 10 | A (“A” indicates maximum degradation ≥75%)
< 50 | < 10 | CC(C)[C@@H](C(=O)N1C[C@H](O)C[C@H]1C(=O)N[C@@H](C)c1ccc(F)cc1)c1cc(N2CC3(CC(c4cc5nnc(-c6ccccc6O)cc5cc4C(F)F)C3)C2)no1 [Compound 283] | – | A (“A” indicates maximum degradation ≥75%)
< 50 | < 10 | C#Cc1ccc([C@H](C)NC(=O)[C@@H]2C[C@@H](O)CN2C(=O)[C@@H](c2cc(N3CC4(CN(c5ccc6cc(-c7ccccc7O)nnc6c5)C4)C3)no2)C(C)C)c(Cl)c1 [Compound 284] | – | A (“A” indicates maximum degradation ≥75%)

SMILES | Dmax [1] [%] | DC50 [2] [nM] | DC50 [1] [nM] | BRM HiBit Degradation Maximum (%) [2]
Cc1ncsc1-c1ccc([C@H](C)NC(=O)[C@@H]2C[C@@H](O)CN2C(=O)C(C(C)C)n2cc(N3C4CCC3CN(c3ccc5nnc(-c6ccccc6O)cc5c3)C4)nn2)cc1 (some centres unmarked) [Compound 285] | > 75 | < 10 | > 10 | A (“A” indicates maximum degradation ≥75%)
